{"source": "patent US20210369739A1", "about": "“COMBINATION THERAPY OF ACYLTHIOUREA COMPOUND AND ABIRATERONE” (TAIHO PHARMACEUTICAL CO., LTD., priority 2018, published 2021)", "key": {"[1]": {"assay": "Combinational administration test: seriousness of side effects (CTCAE Ver. 4.03)", "type": "in vivo, human", "settings": "every dosage group; in combination with abiraterone acetate", "protocol": "A methanesulfonate salt of compound I and abiraterone acetate were administered to patients of castration-resistant prostate cancer with bone metastasis as subjects, and the efficacy and side effects were evaluated. A schedule of administering the methanesulfonate salt of compound I in any of three doses in terms of the free form (200, 300, or 400 mg/body/day) to patients who were receiving secondary endocrine therapy before docetaxel treatment as subjects once a day for 5 days and taking a drug holiday of the compound I only for 2 days was repeated. During this period, 1000 mg of abiraterone acetate was administered to every dosage groups every day once a day, and six subjects were examined in each dosage group. […] In the side effects that determine this discontinuation of enrollment and evaluation, etc., abnormal clinical examination values, such as an increase in alanine aminotransferase (ALT), an increase in aspartate aminotransferase (AST), and an increase in blood creatine kinase (CK), are not included. […] Accordingly, since the number of cases for evaluation of each dosage group is small, i.e., 6 cases, from the viewpoint of the efficacy, side effects, and administration continuity, 6 cases at 300 mg/body/day were additionally evaluated. […]"}, "[2]": {"system": "bone metastasis of castration-resistant prostate cancer", "assay": "Combinational administration test: bone scintigraphy, Bone Scan Index (BSI)", "type": "in vivo, human", "settings": "with 1000 mg abiraterone acetate once a day", "protocol": "A methanesulfonate salt of compound I and abiraterone acetate were administered to patients of castration-resistant prostate cancer with bone metastasis as subjects, and the efficacy and side effects were evaluated. A schedule of administering the methanesulfonate salt of compound I in any of three doses in terms of the free form (200, 300, or 400 mg/body/day) to patients who were receiving secondary endocrine therapy before docetaxel treatment as subjects once a day for 5 days and taking a drug holiday of the compound I only for 2 days was repeated. During this period, 1000 mg of abiraterone acetate was administered to every dosage groups every day once a day, and six subjects were examined in each dosage group. […] In the side effects that determine this discontinuation of enrollment and evaluation, etc., abnormal clinical examination values, such as an increase in alanine aminotransferase (ALT), an increase in aspartate aminotransferase (AST), and an increase in blood creatine kinase (CK), are not included. […] Accordingly, since the number of cases for evaluation of each dosage group is small, i.e., 6 cases, from the viewpoint of the efficacy, side effects, and administration continuity, 6 cases at 300 mg/body/day were additionally evaluated.\nRegarding the efficacy, bone scintigraphy to be used for detecting bone metastasis was implemented, and evaluation was performed based on Bone Scan Index (BSI) using analytical data by BONE NAVI and criteria of Response Evaluation Criteria in Solid Tumors (RECIST) guideline Version 1.1 or Prostate Cancer Clinical Trials Working Group 3 (PCWG3). […] The ANN value indicates the degree of confidence of metastasis on a scale from 0 to 1, and an ANN value exceeding 0.5 is assessed to have a risk of bone metastasis. In addition, in FIG. 1, the best value among BSI measured during the period of administration of the compound I is shown as Best response based on the bone metastasis on the day of starting the administration in each dosage group."}}}
{"smiles": "CNC(=O)c1cc2c(Oc3ccc(NC(=S)NC(=O)Cc4ccccc4)cc3F)ccnc2cc1OC", "note": "[compound I, 4-(2-fluoro-4-(3-(2-phenylacetyl)thioureido)phenoxy)-7-methoxy-N-methylquinoline-6-carboxamide]", "values": [{"measurement": "side effects", "setting": "[1]", "value": "acceptable"}, {"measurement": "suppression of bone metastasis observed (BSI)", "setting": "[2]; 200 mg/body/day as free form, once a day for 5 days then 2-day holiday, CRPC patients with bone metastasis", "value": "two of six"}, {"measurement": "BSI value became 0", "setting": "[2]; 300 mg/body/day, among the 10 cases with suppression", "value": "three"}, {"measurement": "suppression of bone metastasis observed (BSI)", "setting": "[2]; 400 mg/body/day as free form, bone metastasis not measurable in one of six cases", "value": "five of the remaining five"}]}
